We go through 4 compounds from article PMC4655241, “The Structure of a Novel Thermophilic Esterase from the Planctomycetes Species, Thermogutta terrifontis Reveals an Open Active Site Due to a Minimal ‘Cap’ Domain” (Frontiers in Microbiology, 2015).

The target of assay [1] is T1, TtEst2 (Thermogutta terrifontis, UniProt A0A0X1KHD1).
T1 construct: mature form, predicted signal peptide removed; pLATE52 N-terminal His6 tag with WELQ protease site (cleavage not mentioned); E. coli BL21 (DE3); monomer; residues 1-283 modelled
Nature of the assay: X-ray crystal structure, soak. It is filed as binding. The settings on record: carboxyl pocket of active site.

For assay [2], the target named is T1, TtEst2. Nature of the assay: pNP release, A410. The class given is biochemical. As to conditions: 1 mM substrate, 20 mM HEPES, 100 mM NaCl, pH 7.5, 25 C.

T1 sequence (A0A0X1KHD1 entry or part of it): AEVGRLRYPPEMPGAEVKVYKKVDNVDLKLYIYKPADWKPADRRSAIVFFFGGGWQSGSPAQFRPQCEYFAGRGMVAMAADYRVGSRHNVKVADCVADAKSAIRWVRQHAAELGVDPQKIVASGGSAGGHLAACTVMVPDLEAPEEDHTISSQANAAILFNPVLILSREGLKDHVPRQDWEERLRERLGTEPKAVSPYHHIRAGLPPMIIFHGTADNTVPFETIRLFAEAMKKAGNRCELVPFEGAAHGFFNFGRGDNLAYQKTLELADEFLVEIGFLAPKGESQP

Consider `CCC(=O)O` [propionate], for which the “X-ray crystal structure, soak” value at TtEst2 [1] (pH 4.5, 25 mM soak, oxyanion hole, 1.71 A) was 5AOA (propionate bound). In the case of `CC(=O)Oc1ccc([N+](=O)[O-])cc1` [pNP-acetate], the “pNP release, A410” value on TtEst2 [2] was “The enzyme was most active toward pNP-acetate”. For the compound `CCCCC(=O)O` [valerate], the “X-ray crystal structure, soak” value on TtEst2 [1] (pH 4.5, soaked as 25 mM pNP-valerate, only valerate part seen, 1.79 A) is 5AOC (valerate bound).

Turning to `CCCC(=O)O` [butyrate], the “X-ray crystal structure, soak” value at TtEst2 [1] (pH 4.5, 25 mM soak, oxyanion hole, 1.79 A) is given as 5AOB (butyrate bound).
